In patent US20260285888A1, “HETEROCYCLIC COMPOUND AND USE THEREOF” (OTSUKA PHARMACEUTICAL CO., LTD., priority 2023, published 2026):

Legend:
[1] = in vitro; type: cell-based, human; settings: human, differentiated hl-60 cells, 300 μmol/L, about 24 hours, PMA-differentiated HL-60 cells, LDH; no-treatment 0%, cell lysis buffer 100%; read-out: cytotoxicity (%) Evaluation compound results
How it was run: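 HL-60 cells differentiated ~72 h with 10 nM PMA, then exposed ~24 h to compound at 300 μmol/L final in RPMI with 2% FBS. LDH release in supernatant gave cytotoxicity % scaled between untreated (0%) and lysis-buffer (100%) groups; triplicate.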

[2] = Study for confirmation of conversion to brexpiprazole in a buffer (stability of the evaluation compounds); type: physicochemical; settings: in buffer, average of duplicate; for Concentration of brexpiprazole formed: 60-minute reaction sample; for Concentration of evaluation compound decreased: decrease in 60-minute vs 0-minute reaction sample
How it was run: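 Compounds (final 1 μmol/L, from 100 μmol/L working solutions) incubated in buffer at 37° C. for 0 or 60 min, in duplicate, after 3 min pre-incubation of the reaction solution. Reactions stopped with acetonitrile/isopropanol (4:1) containing internal standards; compound and formed brexpiprazole quantified against 0.01–1 μmol/L calibration samples.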

Concentration of brexpiprazole formed [2] [nM]	Concentration of evaluation compound decreased [2] [nM]	Structure (SMILES)	cytotoxicity at 24 h, 300 µM [1] [%]
0	170	CCOC(=O)[C@H](C)NP(=O)([O-])OC[N+]1(CCCCOc2ccc3ccc(=O)[nH]c3c2)CCN(c2cccc3sccc23)CC1 [EX 156, (4-(benzo[b]thiophen-4-yl)-1-(4-((2-oxo-1,2-dihydroquinolin-7-yl)oxy)butyl)piperazin-1-ium-1-yl)methyl (S)-(1-ethoxy-1-oxopropan-2-yl)phosphoramidate]	-9
0	70	C[C@H](NP(=O)([O-])OC[N+]1(CCCCOc2ccc3ccc(=O)[nH]c3c2)CCN(c2cccc3sccc23)CC1)C(N)=O [EX 158, (4-(benzo[b]thiophen-4-yl)-1-(4-((2-oxo-1,2-dihydroquinolin-7-yl)oxy)butyl)piperazin-1-ium-1-yl)methyl (S)-(1-amino-1-oxopropan-2-yl)phosphoramidate]	-3
0	90	CCOC(=O)OCOP(=O)([O-])OC[N+]1(CCCCOc2ccc3ccc(=O)[nH]c3c2)CCN(c2cccc3sccc23)CC1 [EX 129, (4-(benzo[b]thiophen-4-yl)-1-(4-(((2-oxo-1,2-dihydroquinolin-7-yl)oxy)butyl)piperazin-1-ium-1-yl)methyl (((ethoxycarbonyl)oxy)methyl) phosphate]	-4
0	-110	CCCC(C)(C)C(=O)OCOP(=O)([O-])OC[N+]1(CCCCOc2ccc3ccc(=O)[nH]c3c2)CCN(c2cccc3sccc23)CC1 [EX 123, (4-(benzo[b]thiophen-4-yl)-1-(4-((2-oxo-1.2-dihydroquinolin-7-yl)oxy)butyl)piperazin-1-ium-1-yl)methyl (((2,2-dimethylpentanoyl)oxy)methyl) phosphate]	-8
0	90	CCCCOCCOCCOCCOC(=O)OCOP(=O)([O-])OC[N+]1(CCCCOc2ccc3ccc(=O)[nH]c3c2)CCN(c2cccc3sccc23)CC1 [EX 138, (4-(benzo[b]thiophen-4-yl)-1-(4-((2-oxo-1,2-dihydroquinolin-7-yl)oxy)butyl)piperazin-1-ium-1-yl)methyl (3-oxo-2,4,7,10,13-pentaoxaheptadecyl) phosphate]	-7
0	200	CCOC(=O)[C@H](C)OP(=O)([O-])OC[N+]1(CCCCOc2ccc3ccc(=O)[nH]c3c2)CCN(c2cccc3sccc23)CC1 [EX 104, (S)-(4-(benzo[b]thiophen-4-yl)-1-(4-((2-oxo-1,2-dihydroquinolin-7-yl)oxy)butyl)piperazin-1-ium-1-yl)methyl (1-ethoxy-1-oxopropan-2-yl) phosphate]	-5
0	50	CC(C)OC(=O)[C@@H](C)OP(=O)([O-])OC[N+]1(CCCCOc2ccc3ccc(=O)[nH]c3c2)CCN(c2cccc3sccc23)CC1 [EX 105, (R)-(4-(benzo[b]thiophen-4-yl)-1-(4-((2-oxo-1,2-dihydroquinolin-7-yl)oxy)butyl)piperazin-1-ium-1-yl)methyl (1-isopropoxy-1-oxopropan-2-yl) phosphate]	-6
0	90	C[C@@H]1CN(CCOP(=O)([O-])OC[N+]2(CCCCOc3ccc4ccc(=O)[nH]c4c3)CCN(c3cccc4sccc34)CC2)C[C@H](C)O1 [EX 116, (4-(benzo[b]thiophen-4-yl)-1-(4-((2-oxo-1,2-dihydroquinolin-7-yl)oxy)butyl)piperazin-1-ium-1-yl)methyl (2-((2S,6R)-2,6-dimethylmorpholino)ethyl) phosphate]	-9
0	140	CC(C)OCCOC(=O)OCOP(=O)([O-])OC[N+]1(CCCCOc2ccc3ccc(=O)[nH]c3c2)CCN(c2cccc3sccc23)CC1 [EX 133, (4-(benzo[b]thiophen-4-yl)-1-(4-((2-oxo-1,2-dihydroquinolin-7-yl)oxy)butyl)piperazin-1-ium-1-yl)methyl ((((2-isopropoxyethyloxy)carbonyl)oxy)methyl) phosphate]	-5
0	20	CCOC(=O)C[C@@H](OP(=O)([O-])OC[N+]1(CCCCOc2ccc3ccc(=O)[nH]c3c2)CCN(c2cccc3sccc23)CC1)C(=O)OCC [EX 111, (R)-(4-(benzo[b]thiophen-4-yl)-1-(4-((2-oxo-1,2-dihydroquinolin-7-yl)oxy)butyl)piperazin-1-ium-1-yl)methyl (1,4-diethoxy-1,4-dioxobutan-2-yl) phosphate]	0
0	30	O=C(O)CCCCCOC(=O)OCOP(=O)([O-])OC[N+]1(CCCCOc2ccc3ccc(=O)[nH]c3c2)CCN(c2cccc3sccc23)CC1 [EX 145, (4-(benzo[b]thiophen-4-yl)-1-(4-((2-oxo-1,2-dihydroquinolin-7-yl)oxy)butyl)piperazin-1-ium-1-yl)methyl (((((5-carboxypentyl)oxy)carbonyl)oxy)methyl) phosphate]	-9

More lines, now with the values behind:

Structure (SMILES)	Concentration of brexpiprazole formed [2] [nM]	Concentration of evaluation compound decreased [2] [nM]	cytotoxicity at 24 h, 300 µM [1] [%]
CCOCCOP(=O)([O-])OC[N+]1(CCCCOc2ccc3ccc(=O)[nH]c3c2)CCN(c2cccc3sccc23)CC1 [EX 94, (4-(benzo[b]thiophen-4-yl)-1-(4-((2-oxo-1,2-dihydroquinolin-7-yl)oxy)butyl)piperazine-1-ium-1-yl)methyl (2-ethoxyethyl) phosphate]	0	-70	-8
O=c1ccc2ccc(OCCCC[N+]3(COP(=O)([O-])OCCCCCCO)CCN(c4cccc5sccc45)CC3)cc2[nH]1 [EX 44, (4-(benzo[b]thiophen-4-yl)-1-(4-((2-oxo-1,2-dihydroquinolin-7-yl)oxy)butyl)piperazin-1-ium-1-yl)methyl (6-hydroxyhexyl) phosphate]	0	-50	-8
CC(C)COP(=O)([O-])OC[N+]1(CCCCOc2ccc3ccc(=O)[nH]c3c2)CCN(c2cccc3sccc23)CC1 [EX 90, (4-(benzo[b]thiophen-4-yl)-1-(4-(2-oxo-1,2-dihydroquinolin-7-yl)oxy)butyl)piperazin-1-ium-1-yl)methyl isobutyl phosphate]	0	-30	-6
CCOCCC(=O)OCOP(=O)([O-])OC[N+]1(CCCCOc2ccc3ccc(=O)[nH]c3c2)CCN(c2cccc3sccc23)CC1 [EX 29, (4-(benzo[b]thiophen-4-yl)-1-(4-((2-oxo-1,2-dihydroquinolin-7-yl)oxy)butyl)piperazin-1-ium-1-yl)methyl (((3-ethoxypropanoyl)oxy)methyl) phosphate]	0	-10	-4
COCCOCCOCCOC(=O)OCOP(=O)([O-])OC[N+]1(CCCCOc2ccc3ccc(=O)[nH]c3c2)CCN(c2cccc3sccc23)CC1 [EX 35, (4-(benzo[b]thiophen-4-yl)-1-(4-((2-oxo-1,2-dihydroquinolin-7-yl)oxy)butyl)piperazin-1-ium-1-yl)methyl (3-oxo-2,4,7,10,13-pentaoxatetradecyl) phosphate]	0	-20	-9
C[C@@H](OP(=O)([O-])OC[N+]1(CCCCOc2ccc3ccc(=O)[nH]c3c2)CCN(c2cccc3sccc23)CC1)C(=O)OC(C)(C)C [EX 106, (R)-(4-(benzo[b]thiophen-4-yl)-1-(4-((2-oxo-1.2-dihydroquinolin-7-yl)oxy)butyl)piperazin-1-ium-1-yl)methyl (1-(tert-butoxy)-1-oxopropan-2-yl) phosphate]	0	70	10
O=c1ccc2ccc(OCCCC[N+]3(COP(=O)([O-])OCCOCCO)CCN(c4cccc5sccc45)CC3)cc2[nH]1 [EX 93, (4-(benzo[b]thiophen-4-yl)-1-(4-((2-oxo-1,2-dihydroquinolin-7-yl)oxy)butyl)piperazin-1-ium-1-yl)methyl (2-(2-hydroxyethoxy)ethyl) phosphate]	0	-10	-6
O=c1ccc2ccc(OCCCC[N+]3(COP(=O)([O-])OCCCCCCCCO)CCN(c4cccc5sccc45)CC3)cc2[nH]1 [EX 11, (4-(benzo[b]thiophen-4-yl)-1-(4-((2-oxo-1,2-dihydroquinolin-7-yl)oxy)butyl)piperazin-1-ium-1-yl)methyl (8-hydroxyoctyl) phosphate]	0	30	16
